The record followed here is patent US8569495B2, “Anthelmintic agents and their use” (Intervet International B.V., priority 2007, dated 2013).

Structures are written as SMILES.

The subject of one test is Ascaridia galli (L3) and Oesophagostomum dentatum (L3 and L4). As to the kind of experiment: In vitro anthelmintic activity against larval stages of Ascaridia galli and Oesophagostomum dentatum (MEC). The following applies: Ascaridia galli, in vitro; A. galli L3, O. dentatum L3 and L4; 20 larvae per well; microscopic examination; read-out: minimum effective concentration (MEC) against one or more of the tested nematodes.
Turning to `COc1ccc(N2CCN(C(=S)COC3CCC(Nc4ccc([N+](=O)[O-])c(C(F)(F)F)c4)CC3)CC2)cc1OC` (centres unmarked) [Example 207], the minimal effective concentration was less than 1 µM.
Regarding `CC(C)(C)c1ccc(N2CCC(CNC(=O)C3CCC(Nc4ccc([N+](=O)[O-])c(C(F)(F)F)c4)CC3)CC2)cc1` (centres unmarked) [Example 122], the minimal effective concentration is less than 1 µM.
The same measure, in the same setting: then `O=C(COC1CCC(Nc2ccc([N+](=O)[O-])c(C(F)(F)F)c2)CC1)N1CCC(c2ccc(Cl)cc2)CC1` (centres unmarked) [Example 73], with less than 1 µM; and `CC(C)(C)c1ccc(N2CCN(C(=O)NCC3CCC(Nc4ccc([N+](=O)[O-])c(C(F)(F)F)c4)CC3)CC2)cc1` (centres unmarked) [Example 143], with less than 1 µM; and `CC(C)(C)c1ccc(N2CCN(CCOC3CCC(Nc4ccc([N+](=O)[O-])c(C(F)(F)F)c4)CC3)CC2)cc1` (centres unmarked) [Example 116], with less than 1 µM.
Still for that read-out and setting: under `N#Cc1cc([N+](=O)[O-])ccc1N[C@H]1CC[C@H](OCC(=O)N2CCN(c3ccc(Cl)cc3)CC2)CC1` [Example 245] stands less than 7 µM.
With `O=C(NCC1CCC(Nc2ccc([N+](=O)[O-])c(C(F)(F)F)c2)CC1)C1CCN(c2ccc(Cl)cc2)CC1` (centres unmarked) [Example 107], the minimal effective concentration was less than 7 µM.
Still for that read-out and setting: then `O=C(COC1CCC(Nc2ccc([N+](=O)[O-])c(C(F)(F)F)c2)CC1)N1CCCN(c2ccc(Cl)cc2)CC1` (centres unmarked) [Example 150], with less than 1 µM.
As to `O=C(COC1CCC(Nc2ccc([N+](=O)[O-])c(C(F)(F)F)c2)CC1)N1CC2CC1CN2c1ccc(C(F)(F)F)cc1` (centres unmarked) [Example 146], the minimal effective concentration is less than 1 µM.
Still for that read-out and setting: under `O=[N+]([O-])c1ccc(NC2CCC(OCCN3CCN(c4ccc(C(F)(F)F)cc4)CC3)CC2)cc1C(F)(F)F` (centres unmarked) [Example 119] stands less than 1 µM.
Consider `CN(CC1CCC(Nc2ccc([N+](=O)[O-])c(C(F)(F)F)c2)CC1)C(=O)N1CCN(c2ccc(C(C)(C)C)cc2)CC1` (centres unmarked) [Example 141], for which the minimal effective concentration was less than 1 µM.
Still for that read-out and setting: under `O=C(COC1CCC(Nc2ccc(OC(F)(F)F)c(C(F)(F)F)c2)CC1)N1CCN(c2ccc(Cl)cc2)CC1` (centres unmarked) [Example 90] stands less than 1 µM; under `O=C(NCC1CCC(Nc2ccc([N+](=O)[O-])c(C(F)(F)F)c2)CC1)C1CCN(c2ccc(F)cc2)CC1` (centres unmarked) [Example 113], less than 7 µM.
The same measure, in the same setting: under `O=C(NCC1CCN(c2ccc(C(F)(F)F)cc2)CC1)C1CCC(Nc2ccc([N+](=O)[O-])c(C(F)(F)F)c2)CC1` (centres unmarked) [Example 120] stands less than 1 µM; under `Cc1cc(N[C@H]2CC[C@H](OCC(=O)N3CCN(c4ccc(Cl)cc4)CC3)CC2)ccc1[N+](=O)[O-]` [Example 241], less than 1 µM.
Take `CCOc1ccc(N2CCC(CN(C)C(=O)C3CCC(Nc4ccc([N+](=O)[O-])c(C(F)(F)F)c4)CC3)CC2)cc1` (centres unmarked) [Example 133]: the minimal effective concentration was less than 1 µM.
For the compound `CN(CC1CCN(c2ccc(C(C)(C)C)cc2)CC1)C(=O)C1CCC(Nc2ccc([N+](=O)[O-])c(C(F)(F)F)c2)CC1` (centres unmarked) [Example 132], the minimal effective concentration is less than 1 µM.
For the compound `CCOc1ccc(N2CCC(CNC(=O)C3CCC(Nc4ccc([N+](=O)[O-])c(C(F)(F)F)c4)CC3)CC2)cc1` (centres unmarked) [Example 125], the minimal effective concentration was less than 1 µM.

The same test, now with this note: Ascaridia galli, in vitro; A. galli L3, O. dentatum L3 and L4; 20 larvae per well; microscopic examination; read-out: minimum effective concentration (MEC) against two or more of the tested nematodes.
For `CC(C)(C)c1ccc(N2CCC(CNC(=O)C3CCC(Nc4ccc([N+](=O)[O-])c(C(F)(F)F)c4)CC3)CC2)cc1` (centres unmarked) [Example 122], the minimal effective concentration was less than 1 µM.
For the compound `O=C(CC[C@H]1CC[C@H](Nc2ccc([N+](=O)[O-])c(C(F)(F)F)c2)CC1)N1CCN(c2ccc(C(F)(F)F)cc2)CC1` [Example 41, 3-(trans-4-(4-nitro-3-trifluoromethyl-phenylamino)-cyclohexyl)-1-(4-(4-trifluoromethyl-phenyl)-piperazin-1-yl)-propan-1-one], the minimal effective concentration is less than 1 µM.
Turning to `CN(CC1CCN(c2ccc(Cl)cc2)CC1)C(=O)C1CCC(Nc2ccc([N+](=O)[O-])c(C(F)(F)F)c2)CC1` (centres unmarked) [Example 136], the minimal effective concentration is less than 1 µM.
Turning to `O=C(COC1CCC(Nc2ccc([N+](=O)[O-])c(C(F)(F)F)c2)CC1)N1CCC(Nc2ccc([N+](=O)[O-])c(C(F)(F)F)c2)CC1` (centres unmarked) [Example 189], the minimal effective concentration is less than 1 µM.
With `N#Cc1ccc(N[C@H]2CC[C@H](OCC(=O)N3CCN(c4ccc(OCc5ccccc5)cc4)CC3)CC2)cc1C(F)(F)F` [Example 25, 4-(trans-4-{2-[4-(4-benzyloxy-phenyl)-piperazin-1-yl]-2-oxoethoxy}-cyclohexylamino)-2-trifluoromethyl-benzonitrile], the minimal effective concentration was less than 1 µM.
Take `CC(C)(C)c1ccc(N2CCN(C(=O)CO[C@H]3CC[C@H](Nc4ccc(C#N)c(C(F)(F)F)c4)CC3)CC2)cc1` [Example 27, 4-(trans-4-{2-[4-(4-tert-butyl-phenyl)-piperazin-1-yl]-2-oxo-ethoxy}-cyclohexylamino)-2-trifluoromethyl-benzonitrile]: the minimal effective concentration is less than 1 µM.
With `O=C(COC1CCC(Nc2ccc(Cl)c(C(F)(F)F)c2)CC1)N1CCN(c2ccc(OCc3ccccc3)cc2)CC1` (centres unmarked) [Example 97], the minimal effective concentration was less than 1 µM.
On the same count and under the same terms, then `O=C(COC1CCC(Nc2ccc([N+](=O)[O-])c(C(F)(F)F)c2)CC1)N1CCCN(c2ccc(Cl)cc2)CC1` (centres unmarked) [Example 150], with less than 1 µM; and `CC(C)(C)c1ccc(N2CCN(C(=O)COC3CCC(Oc4ccc([N+](=O)[O-])c(C(F)(F)F)c4)CC3)CC2)cc1` (centres unmarked) [Example 260], with less than 1 µM.
Still for that read-out and setting: under `CC(C)(C)c1ccc(N2CCN(C(=O)COC3CCC(Nc4ccc(SC(F)(F)F)cc4)CC3)CC2)cc1` (centres unmarked) [Example 103] stands less than 1 µM.
Regarding `CC(C)(C)c1ccc(N2CCN(C(=O)COC3C=C[C@@H](Nc4ccc([N+](=O)[O-])c(C(F)(F)F)c4)C3)CC2)cc1` (some centres unmarked) [Example 259], the minimal effective concentration is less than 1 µM.
Turning to `COc1cc(N[C@H]2CC[C@H](OCC(=O)N3CCN(c4ccc(C(C)(C)C)cc4)CC3)CC2)ccc1[N+](=O)[O-]` [Example 249], the minimal effective concentration was less than 1 µM.
As to `CC(C)(C)c1ccc(N2CCN(C(=O)CO[C@H]3CC[C@H](Nc4ccc([N+](=O)[O-])c(C#N)c4)CC3)CC2)cc1` [Example 248], the minimal effective concentration is less than 1 µM.
On the same count and under the same terms, under `O=C(COC1CCC(Nc2ccc([N+](=O)[O-])c(C(F)(F)F)c2)CC1)N1CCN(c2ccc(F)cc2F)CC1` (centres unmarked) [Example 71] stands less than 1 µM; under `CC(C)(C)c1ccc(N2CCC(C(=O)NC[C@H]3CC[C@H](Nc4ccc([N+](=O)[O-])c(C(F)(F)F)c4)CC3)CC2)cc1` [Example 54, 1-(4-tert-butyl-phenyl)-N-[trans-4-(4-nitro-3-trifluoromethyl-phenylamino)-cyclohexylmethyl]-piperidine-4-carboxamide], less than 1 µM; under `CCCc1ccc(C2CCN(C(=O)COC3CCC(Nc4ccc(C#N)c(C(F)(F)F)c4)CC3)CC2)cc1` (centres unmarked) [Example 168], less than 1 µM.
Turning to `N#Cc1ccc(NC2CCC(OCC(=O)N3CCCN(c4ccc(SC(F)(F)F)cc4)CC3)CC2)cc1C(F)(F)F` (centres unmarked) [Example 160], the minimal effective concentration was less than 1 µM.
For `CC(C)(C)c1ccc(C2CCN(C(=O)COC3CCC(Nc4ccc(C#N)c(C(F)(F)F)c4)CC3)CC2)cc1` (centres unmarked) [Example 166], the minimal effective concentration was less than 1 µM.
With `O=C(NCC1CCN(c2ccc(C(F)(F)F)cc2)CC1)C1CCC(Nc2ccc([N+](=O)[O-])c(C(F)(F)F)c2)CC1` (centres unmarked) [Example 120], the minimal effective concentration was less than 1 µM.
The same measure, in the same setting: then `O=[N+]([O-])c1ccc(NC2CCC(CCC(=S)N3CCN(c4ccc(C(F)(F)F)cc4)CC3)CC2)cc1C(F)(F)F` (centres unmarked) [Example 213], with less than 1 µM; and `CCOc1ccc(N2CCC(CN(C)C(=O)C3CCC(Nc4ccc([N+](=O)[O-])c(C(F)(F)F)c4)CC3)CC2)cc1` (centres unmarked) [Example 133], with less than 1 µM.
Consider `CN(CC1CCN(c2ccc(C(C)(C)C)cc2)CC1)C(=O)C1CCC(Nc2ccc([N+](=O)[O-])c(C(F)(F)F)c2)CC1` (centres unmarked) [Example 132], for which the minimal effective concentration was less than 1 µM.
Same read-out and setting: then `CSc1ccc(NC2CCN(C(=O)COC3CCC(Nc4ccc([N+](=O)[O-])c(C(F)(F)F)c4)CC3)CC2)cc1C(F)(F)F` (centres unmarked) [Example 188], with less than 1 µM; and `CC(C)(C)c1ccc(N2CCN(C(=S)COC3CCC(Nc4ccc(Cl)c(C(F)(F)F)c4)CC3)CC2)cc1` (centres unmarked) [Example 215], with less than 1 µM; and `O=C(COC1CCC(Nc2ccc([N+](=O)[O-])c(C(F)(F)F)c2)CC1)N1CC2CN(c3ccc(Cl)cc3)CC2C1` (centres unmarked) [Example 262], with less than 1 µM.
With `CC(C)COc1ccc(N2CCN(C(=O)COC3CCC(Nc4ccc([N+](=O)[O-])c(C(F)(F)F)c4)CC3)CC2)cc1` (centres unmarked) [Example 82], the minimal effective concentration is less than 1 µM.

The test is the same for the next values; noted with them: Ascaridia galli, read-out: minimum effective concentration (MEC) against one or more of the tested nematodes, in vitro; A. galli L3, O. dentatum L3 and L4; 20 larvae per well; microscopic examination.
For `O=C(COC1CCC(Nc2ccc([N+](=O)[O-])c(C(F)(F)F)c2)CC1)NCCCNc1ccc(C(F)(F)F)cc1` (centres unmarked) [Example 152], the minimal effective concentration was less than 1 µM.

Still in this test, the particulars now being: Ascaridia galli, read-out: minimum effective concentration (MEC) against two or more of the tested nematodes, in vitro; A. galli L3, O. dentatum L3 and L4; 20 larvae per well; microscopic examination.
As to `CN(c1ccc([N+](=O)[O-])c(C(F)(F)F)c1)C1CCC(OCC(=S)N2CCN(c3ccc(C(F)(F)F)cc3)CC2)CC1` (centres unmarked) [Example 218], the minimal effective concentration is less than 1 µM.
On the same count and under the same terms, then `CCC(OC1CCC(Nc2ccc([N+](=O)[O-])c(C(F)(F)F)c2)CC1)C(=O)N1CCN(c2ccc(C(F)(F)F)cc2)CC1` (centres unmarked) [Example 226], with less than 1 µM; and `O=C(CO[C@H]1CC[C@H](Nc2ccc([N+](=O)[O-])c(C(F)(F)F)c2)CC1)N1CCN(c2ccc(OCc3ccc(C(F)(F)F)cc3)cc2)CC1` [Example 20, 2-[trans-4-(4-nitro-3-trifluoromethyl-phenylamino)-cyclohexyloxy]-1-{4-[4-(4-trifluoromethyl-benzyloxy)-phenyl]-piperazin-1-yl}-ethanone], with less than 1 µM; and `O=C(CO[C@H]1CC[C@H](Nc2ccc([N+](=O)[O-])c(C(F)(F)F)c2)CC1)N1CCC(c2ccc(F)cc2F)CC1` [Example 22, 1-[4-(2,4-difluoro-phenyl)-piperidin-1-yl]-2-[trans-4-(4-nitro-3-trifluoromethyl-phenylamino)-cyclohexyloxy]-ethanone], with less than 1 µM.

Staying with this test, now noted: in vitro; A. galli L3, O. dentatum L3 and L4.
`O=C(CO[C@H]1CC[C@H](Nc2ccc([N+](=O)[O-])cc2C(F)(F)F)CC1)N1CCN(c2ccccc2)CC1` [Example 240]: the “activity against the tested nematodes” value was “no detectable activity”.
